Key:
Assay in all cases: DSF selectivity screening
Type in all cases: binding
Details in all cases: 10 μM compound
[1] = target: ABL1A (Homo sapiens, UniProt P00519)
Experimental: (§1) The assay was performed as previously described.[29],[35] Briefly, recombinant protein kinase domains at a concentration of 2 μM were mixed with a 10 μM compound in a buffer containing 20 mM HEPES, pH 7.5, and 500 mM NaCl. SYPRO Orange (5000×, Invitrogen) was added as a fluorescence probe (1 μL per mL). Subsequently, temperature-dependent protein unfolding profiles were measured using a QuantStudio 5 real-time PCR machine (Thermo Fisher). Excitation and emission filters were set to 465 and 590 nm, respectively. The temperature was raised with a step rate of 3 °C per minute. Data points were analyzed with internal software (Thermal Shift Software version 1.4, Thermo Fisher) using the Boltzmann equation to determine the inflection point of the transition curve (Table S4).

[2] = target: AURKBA (Homo sapiens, UniProt Q96GD4)
Experimental: as §1

[3] = target: BMP2KA (Homo sapiens, UniProt Q9NSY1)
Experimental: as §1

[4] = target: BMPR2A (Homo sapiens, UniProt Q13873)
Experimental: as §1

[5] = target: CAMK2BA (Homo sapiens, UniProt Q13554)
Experimental: as §1

[6] = target: CAMKK2B (Homo sapiens, UniProt Q96RR4)
Experimental: as §1

[7] = target: CDK2A (Homo sapiens, UniProt P24941)
Experimental: as §1

[8] = target: CDKL1A (Homo sapiens, UniProt Q00532)
Experimental: as §1

[9] = target: CSNK1DA (Homo sapiens, UniProt P48730)
Experimental: as §1

[10] = target: EPHB1A (Homo sapiens, UniProt P54762)
Experimental: as §1

[11] = target: EPHB3A (Homo sapiens, UniProt P54753)
Experimental: as §1

[12] = target: FECH (Homo sapiens, UniProt P22830)
Experimental: as §1

[13] = target: FGFR1B (Homo sapiens, UniProt P11362)
Experimental: as §1

[14] = target: FGFR2A (Homo sapiens, UniProt P21802)
Experimental: as §1

[15] = target: GPRK5A (Homo sapiens, UniProt P34947)
Experimental: as §1

[16] = target: HIPK2 (Homo sapiens, UniProt Q9H2X6)
Experimental: as §1

[17] = target: MAP2K4A (Homo sapiens, UniProt P45985)
Experimental: as §1

[18] = target: MAP2K7 (Homo sapiens, UniProt O14733)
Experimental: as §1

[19] = target: MAPK10A (Homo sapiens, UniProt P53779)
Experimental: as §1

[20] = target: MAPK13A (Homo sapiens, UniProt O15264)
Experimental: as §1

[21] = target: MAPK1A (Homo sapiens, UniProt P28482)
Experimental: as §1

[22] = target: MERTKA (Homo sapiens, UniProt Q12866)
Experimental: as §1

[23] = target: NEK1A (Homo sapiens, UniProt Q96PY6)
Experimental: as §1

[24] = target: NEK7A (Homo sapiens, UniProt Q8TDX7)
Experimental: as §1

[25] = target: PAK1A (Homo sapiens, UniProt Q13153)
Experimental: as §1

[26] = target: PAK4A (Homo sapiens, UniProt O96013)
Experimental: as §1

[27] = target: PCTK1A (Homo sapiens, UniProt Q00536)
Experimental: as §1

[28] = target: PHKG2A (Homo sapiens, UniProt P15735)
Experimental: as §1

[29] = target: PKMYT1A (Homo sapiens, UniProt Q99640)
Experimental: as §1

[30] = tested on: RPS6KA5A
Experimental: as §1

[31] = target: SLKA (Homo sapiens, UniProt Q9H2G2)
Experimental: as §1

[32] = target: SRCA (Homo sapiens, UniProt P12931)
Experimental: as §1

[33] = target: STK17BA (Homo sapiens, UniProt O94768)
Experimental: as §1

[34] = target: STK38LA (Homo sapiens, UniProt Q9Y2H1)
Experimental: as §1

[35] = target: STK4A (Homo sapiens, UniProt Q13043)
Experimental: as §1

[36] = target: STK6A (Homo sapiens, UniProt O14965)
Experimental: as §1

[37] = target: TLK1A (Homo sapiens, UniProt Q9UKI8)
Experimental: as §1

[38] = target: TTKA (Homo sapiens, UniProt P33981)
Experimental: as §1

[39] = target: ULK1A (Homo sapiens, UniProt O75385)
Experimental: as §1

[40] = target: ULK3A (Homo sapiens, UniProt Q6PHR2)
Experimental: as §1

[41] = target: VRK1A (Homo sapiens, UniProt Q99986)
Experimental: as §1

Chain of TTKA (P33981 519-808): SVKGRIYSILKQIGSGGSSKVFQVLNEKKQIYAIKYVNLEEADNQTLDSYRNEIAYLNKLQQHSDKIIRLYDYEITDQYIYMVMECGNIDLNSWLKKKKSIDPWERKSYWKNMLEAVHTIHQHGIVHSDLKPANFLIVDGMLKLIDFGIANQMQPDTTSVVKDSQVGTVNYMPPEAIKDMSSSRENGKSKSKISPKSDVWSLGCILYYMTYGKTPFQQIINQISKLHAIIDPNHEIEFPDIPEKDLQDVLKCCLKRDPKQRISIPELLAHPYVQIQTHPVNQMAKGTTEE
Chain of MERTKA (Q12866 571-864): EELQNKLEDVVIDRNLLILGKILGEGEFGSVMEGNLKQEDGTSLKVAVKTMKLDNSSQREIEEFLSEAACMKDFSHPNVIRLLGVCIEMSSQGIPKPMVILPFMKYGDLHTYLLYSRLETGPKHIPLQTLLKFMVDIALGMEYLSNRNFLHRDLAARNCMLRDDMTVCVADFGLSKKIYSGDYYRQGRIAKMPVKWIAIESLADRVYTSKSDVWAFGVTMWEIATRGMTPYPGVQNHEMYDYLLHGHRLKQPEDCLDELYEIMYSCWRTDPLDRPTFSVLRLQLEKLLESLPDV
Chain of FGFR2A (P21802 458-770): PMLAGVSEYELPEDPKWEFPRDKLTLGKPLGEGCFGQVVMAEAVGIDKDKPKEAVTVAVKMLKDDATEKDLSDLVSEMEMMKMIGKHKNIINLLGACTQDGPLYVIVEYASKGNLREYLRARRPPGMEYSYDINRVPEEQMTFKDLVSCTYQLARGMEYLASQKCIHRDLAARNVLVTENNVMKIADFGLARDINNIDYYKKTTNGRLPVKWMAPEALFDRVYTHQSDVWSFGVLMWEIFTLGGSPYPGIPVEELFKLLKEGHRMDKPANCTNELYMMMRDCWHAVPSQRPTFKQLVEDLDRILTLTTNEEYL
Chain of MAP2K4A (P45985 102-367): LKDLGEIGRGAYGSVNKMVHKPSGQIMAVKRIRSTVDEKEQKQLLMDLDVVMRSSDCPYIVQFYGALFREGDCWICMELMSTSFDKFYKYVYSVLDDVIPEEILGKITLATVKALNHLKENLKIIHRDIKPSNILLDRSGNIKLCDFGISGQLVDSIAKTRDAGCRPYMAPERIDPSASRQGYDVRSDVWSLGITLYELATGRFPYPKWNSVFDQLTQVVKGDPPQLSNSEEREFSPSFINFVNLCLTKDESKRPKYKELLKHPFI
Chain of SLKA (Q9H2G2 19-320): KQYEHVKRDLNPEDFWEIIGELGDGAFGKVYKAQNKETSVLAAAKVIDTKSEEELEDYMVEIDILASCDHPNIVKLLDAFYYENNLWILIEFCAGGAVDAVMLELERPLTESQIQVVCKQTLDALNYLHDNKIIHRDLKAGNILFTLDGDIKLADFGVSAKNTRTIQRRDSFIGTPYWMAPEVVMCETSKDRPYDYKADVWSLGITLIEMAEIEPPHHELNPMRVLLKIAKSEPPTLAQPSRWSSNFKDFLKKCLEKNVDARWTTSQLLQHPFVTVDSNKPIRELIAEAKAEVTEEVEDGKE
Chain of EPHB1A (P54762 602-896): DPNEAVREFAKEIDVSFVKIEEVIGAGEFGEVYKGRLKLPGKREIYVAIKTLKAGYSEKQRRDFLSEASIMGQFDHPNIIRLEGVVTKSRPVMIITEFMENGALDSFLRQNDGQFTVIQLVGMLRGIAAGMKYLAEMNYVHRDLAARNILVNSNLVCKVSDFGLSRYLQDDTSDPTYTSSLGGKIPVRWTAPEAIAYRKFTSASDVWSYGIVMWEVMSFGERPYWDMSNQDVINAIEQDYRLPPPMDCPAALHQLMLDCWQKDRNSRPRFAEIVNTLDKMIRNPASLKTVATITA
Chain of STK6A (O14965 122-403): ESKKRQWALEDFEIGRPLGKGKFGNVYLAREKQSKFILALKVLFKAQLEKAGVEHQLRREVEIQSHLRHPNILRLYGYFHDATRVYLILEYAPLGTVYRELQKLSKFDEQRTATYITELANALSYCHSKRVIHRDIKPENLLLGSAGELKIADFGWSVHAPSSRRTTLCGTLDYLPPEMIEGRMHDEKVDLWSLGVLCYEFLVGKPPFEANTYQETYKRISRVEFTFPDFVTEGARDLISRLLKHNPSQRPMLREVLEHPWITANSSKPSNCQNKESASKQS
Chain of PAK4A (O96013 291-591): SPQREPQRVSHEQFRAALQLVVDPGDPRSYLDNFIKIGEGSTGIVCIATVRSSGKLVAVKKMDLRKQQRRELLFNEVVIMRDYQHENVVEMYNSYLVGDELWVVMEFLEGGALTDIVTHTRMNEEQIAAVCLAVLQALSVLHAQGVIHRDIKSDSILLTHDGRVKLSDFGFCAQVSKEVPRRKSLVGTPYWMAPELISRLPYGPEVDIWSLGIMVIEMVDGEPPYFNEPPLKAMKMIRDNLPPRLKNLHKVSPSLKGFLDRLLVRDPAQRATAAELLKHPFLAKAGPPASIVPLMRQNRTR
Chain of CAMKK2B (Q96RR4 161-449): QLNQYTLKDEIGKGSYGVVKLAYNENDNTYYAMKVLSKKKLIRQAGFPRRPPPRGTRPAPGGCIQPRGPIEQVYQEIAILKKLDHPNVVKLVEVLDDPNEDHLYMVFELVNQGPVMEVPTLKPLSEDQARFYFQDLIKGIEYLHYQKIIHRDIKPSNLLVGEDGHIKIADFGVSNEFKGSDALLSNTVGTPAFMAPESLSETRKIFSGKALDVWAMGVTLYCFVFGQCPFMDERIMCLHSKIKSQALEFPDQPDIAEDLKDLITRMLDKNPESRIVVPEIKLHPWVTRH
Chain of AURKBA (Q96GD4 55-344): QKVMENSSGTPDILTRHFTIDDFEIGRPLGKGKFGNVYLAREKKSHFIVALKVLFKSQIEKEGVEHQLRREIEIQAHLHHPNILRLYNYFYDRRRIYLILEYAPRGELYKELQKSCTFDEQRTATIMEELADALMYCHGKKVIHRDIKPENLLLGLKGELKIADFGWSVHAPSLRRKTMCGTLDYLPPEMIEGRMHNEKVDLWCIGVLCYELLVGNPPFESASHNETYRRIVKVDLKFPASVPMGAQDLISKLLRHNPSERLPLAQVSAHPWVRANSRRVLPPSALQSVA
Chain of PKMYT1A (Q99640 75-362): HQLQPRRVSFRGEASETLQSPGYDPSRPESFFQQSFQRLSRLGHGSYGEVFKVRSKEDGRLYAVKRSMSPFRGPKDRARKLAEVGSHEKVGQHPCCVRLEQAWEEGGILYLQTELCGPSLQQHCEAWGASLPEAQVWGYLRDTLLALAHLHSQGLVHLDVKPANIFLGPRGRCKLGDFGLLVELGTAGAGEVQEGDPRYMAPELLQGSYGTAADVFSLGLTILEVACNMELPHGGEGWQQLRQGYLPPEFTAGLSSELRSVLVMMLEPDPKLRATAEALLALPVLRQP
Chain of SRCA (P12931 254-536): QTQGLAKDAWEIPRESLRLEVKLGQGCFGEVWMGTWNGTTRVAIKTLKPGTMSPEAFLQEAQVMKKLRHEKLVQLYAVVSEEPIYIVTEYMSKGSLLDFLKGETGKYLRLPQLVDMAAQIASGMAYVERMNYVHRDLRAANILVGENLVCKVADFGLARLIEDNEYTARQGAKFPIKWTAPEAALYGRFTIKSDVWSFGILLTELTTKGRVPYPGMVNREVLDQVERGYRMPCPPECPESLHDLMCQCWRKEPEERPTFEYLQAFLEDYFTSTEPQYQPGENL
Chain of MAP2K7 (O14733 120-380): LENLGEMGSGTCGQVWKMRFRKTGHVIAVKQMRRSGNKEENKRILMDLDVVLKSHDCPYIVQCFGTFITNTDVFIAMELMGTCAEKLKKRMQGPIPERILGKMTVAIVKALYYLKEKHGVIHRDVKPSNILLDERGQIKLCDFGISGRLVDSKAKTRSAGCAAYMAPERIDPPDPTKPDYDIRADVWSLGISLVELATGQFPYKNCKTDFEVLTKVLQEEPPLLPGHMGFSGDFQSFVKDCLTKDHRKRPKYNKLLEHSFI
Chain of MAPK1A (P28482 whole entry): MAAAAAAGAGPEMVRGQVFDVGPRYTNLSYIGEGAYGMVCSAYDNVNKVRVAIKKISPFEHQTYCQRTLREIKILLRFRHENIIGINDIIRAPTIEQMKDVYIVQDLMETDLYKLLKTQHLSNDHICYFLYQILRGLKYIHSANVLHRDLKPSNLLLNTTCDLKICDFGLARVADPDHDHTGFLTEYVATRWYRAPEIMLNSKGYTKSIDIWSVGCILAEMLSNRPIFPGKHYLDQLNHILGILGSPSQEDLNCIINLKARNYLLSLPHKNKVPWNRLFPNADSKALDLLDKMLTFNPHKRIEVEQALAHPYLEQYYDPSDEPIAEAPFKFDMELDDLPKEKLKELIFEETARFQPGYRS
Chain of FGFR1B (P11362 456-767): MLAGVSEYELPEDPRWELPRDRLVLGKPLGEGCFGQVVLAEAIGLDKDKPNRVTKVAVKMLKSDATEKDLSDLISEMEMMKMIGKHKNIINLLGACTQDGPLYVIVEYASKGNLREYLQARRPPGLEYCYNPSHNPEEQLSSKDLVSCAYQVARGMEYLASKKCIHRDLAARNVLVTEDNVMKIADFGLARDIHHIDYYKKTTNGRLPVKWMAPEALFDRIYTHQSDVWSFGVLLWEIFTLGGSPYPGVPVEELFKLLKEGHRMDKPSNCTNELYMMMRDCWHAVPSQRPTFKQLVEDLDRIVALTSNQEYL
Chain of STK17BA (O94768 25-329): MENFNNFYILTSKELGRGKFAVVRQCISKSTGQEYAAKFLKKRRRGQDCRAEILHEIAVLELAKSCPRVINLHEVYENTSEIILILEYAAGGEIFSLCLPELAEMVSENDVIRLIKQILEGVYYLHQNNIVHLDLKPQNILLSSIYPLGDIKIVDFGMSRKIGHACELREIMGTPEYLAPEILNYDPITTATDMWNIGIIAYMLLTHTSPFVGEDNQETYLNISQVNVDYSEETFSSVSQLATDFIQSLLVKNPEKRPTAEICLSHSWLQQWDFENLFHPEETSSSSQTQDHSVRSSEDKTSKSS

CN1C(=O)[C@@H](N2CCc3c(nn(Cc4ccccc4)c3C(N)=O)C2=O)COc2cc(Cl)ccc21 [Compound 10, (S)-2-benzyl-6-(8-chloro-5-methyl-4-oxo-2,3,4,5-tetrahydrobenzo[b][1,4]oxazepin-3-yl)-7-oxo-4,5,6,7-tetrahydro-2H-pyrazolo[3,4-c]pyridine-3-carboxamide] gave a ΔTm at 10 µM [1] of -0.1 °C, a ΔTm at 10 µM [2] of 0.2 °C and a ΔTm at 10 µM [3] of 0.3 °C. For the same molecule, the ΔTm at 10 µM [4] was 0.1 °C, the ΔTm at 10 µM [5] was 0.1 °C and the ΔTm at 10 µM [6] was -0.2 °C. For the same molecule, the ΔTm at 10 µM [7] was 0 °C, the ΔTm at 10 µM [8] was 0 °C and the ΔTm at 10 µM [9] was 0.5 °C. It also gave a ΔTm at 10 µM [10] of 0.1 °C, a ΔTm at 10 µM [11] of 0.2 °C and a ΔTm at 10 µM [12] of -0.6 °C. The ΔTm at 10 µM [13] was -0.1 °C, the ΔTm at 10 µM [14] was 0.1 °C and the ΔTm at 10 µM [15] was -0.2 °C. For the same molecule, the ΔTm at 10 µM [16] was 0.3 °C, the ΔTm at 10 µM [17] was 0.1 °C and the ΔTm at 10 µM [18] was 1.1 °C. It also gave a ΔTm at 10 µM [19] of 0 °C, a ΔTm at 10 µM [20] of -0.1 °C and a ΔTm at 10 µM [21] of 0.1 °C. For the same molecule, the ΔTm at 10 µM [22] was 0.1 °C, the ΔTm at 10 µM [23] was 0.1 °C and the ΔTm at 10 µM [24] was 0 °C. For the same molecule, the ΔTm at 10 µM [25] was 0.2 °C, the ΔTm at 10 µM [26] was 0.1 °C and the ΔTm at 10 µM [27] was 0.2 °C. It also gave a ΔTm at 10 µM [28] of 0 °C, a ΔTm at 10 µM [29] of -0.1 °C and a ΔTM [30] of -0.1 K. For the same molecule, the ΔTm at 10 µM [31] was -0.3 °C, the ΔTm at 10 µM [32] was 0.1 °C and the ΔTm at 10 µM [33] was 0.1 °C. It also gave a ΔTm at 10 µM [34] of 0 °C, a ΔTm at 10 µM [35] of -0.5 °C and a ΔTm at 10 µM [36] of 0.1 °C. The ΔTm at 10 µM [37] was 0 °C, the ΔTm at 10 µM [38] was -0.3 °C and the ΔTm at 10 µM [39] was 0.1 °C. The ΔTm at 10 µM [40] was 0.2 °C and the ΔTm at 10 µM [41] was -0.2 °C.
